Patent publication US7732622B2, “Naphthalene derivatives” (Glaxo Group Limited, priority 2001, dated 2010)
pKi: −log10 of the molar value.

biological target: T1, human EP4 receptor (Homo sapiens, UniProt P35408); assay: Human EP4 Scintillation Proximity Assay (radioligand binding); conditions: not given
T1 construct: expressed in transfected cells; host or cells: CHO cells infected with recombinant Semliki Forest Virus (SFV-1) particles; membranes prepared
Method: Quantification of radioligand binding by scintillation proximity assay (SPA) is a long-established principle. Briefly, the affinity of novel compounds for a receptor is assessed by the specific competition between known quantities of radiolabelled ligand and novel compound for that receptor. Increasing concentrations of novel compound reduce the amount of radiolabel that binds to the receptor. This gives rise to a diminishing scintillation signal from SPA beads coated with membranes that bear the receptor. The signal may be detected with a suitable scintillation counter and the data generated may be analysed with suitable curve-fitting software.
The human EP4 SPA assay (hereafter referred to as ‘the assay’) utilises membranes prepared from Chinese Hamster Ovary (CHO cells) infected with Semliki Forest Virus (SFV). Genetically engineered SFV-1 viral particles containing the genetic sequence of the human EP4 receptor were used to infect CHO cells resulting in expression of the receptor protein in cellular membranes. Cells washed free of media are homogenised in a pH-buffered medium containing peptidase inhibitors. A suitable buffer is of the following composition: 50 mM HEPES, 1 mM EDTA, 25 μg/ml bacitracin, 100 μM leupeptin, 1 mM PMSF, 2 μM Pepstatin A, pH adjusted to 7.4 with KOH. Following removal of cell debris by a low-speed centrifugation, a pellet of membranes is prepared by a high-speed (48000 g) centrifugation of the resulting supernatant. Membrane suspensions such as that described may be stored at −80° C. until used.
For assay, membranes expressing human EP4 receptors are diluted in a pH-buffered medium and mixed with SPA beads coated with a suitable substance to facilitate the adhesion of membranes to the beads. The concentrations of membrane protein and SPA beads chosen should result in SPA binding signal of at least 300 corrected counts per minute (CCPM) when tritiated radioligand at a concentration close to its Kd (affinity value) is combined with the mixture. Non-specific binding (nsb) may be determined by competition between the radiolabelled ligand and a saturating concentration of unlabelled ligand. In order to quantify the affinity of novel EP4 receptor ligands, compounds are diluted in a stepwise manner across the wells of a 96-well plate. Radioligand, novel compound, and unlabelled ligand are then added to a 96-well plate suitable for the measurement of SPA binding signals prior to the addition of bead/membrane mixture to initiate the binding reaction. Equilibrium may be achieved by incubation at room temperature for 120 minutes prior to scintillation counting. The data so generated may be analysed by means of a computerised curve-fitting routine in order to quantify the concentration of compound that displaces 50% of the specific radioligand binding (IC50). The affinity (pKi) of the novel compound may be calculated from the IC50 by application of the Cheng-Prusoff correction. Suitable reagents and protocols are: reaction buffer containing 50 mM HEPES, 10 mM MgCl2, pH adjusted to 7.4 with KOH; SPA beads coated with wheatgerm agglutinin; 1.25 nM [^3H]-prostaglandin E2 as radioligand; 10 μM prostaglandin E2 as unlabelled ligand; a three-fold dilution series of novel compound starting at 10 μM and ending at 0.3 nM is adequate.

T1 sequence (P35408 whole entry): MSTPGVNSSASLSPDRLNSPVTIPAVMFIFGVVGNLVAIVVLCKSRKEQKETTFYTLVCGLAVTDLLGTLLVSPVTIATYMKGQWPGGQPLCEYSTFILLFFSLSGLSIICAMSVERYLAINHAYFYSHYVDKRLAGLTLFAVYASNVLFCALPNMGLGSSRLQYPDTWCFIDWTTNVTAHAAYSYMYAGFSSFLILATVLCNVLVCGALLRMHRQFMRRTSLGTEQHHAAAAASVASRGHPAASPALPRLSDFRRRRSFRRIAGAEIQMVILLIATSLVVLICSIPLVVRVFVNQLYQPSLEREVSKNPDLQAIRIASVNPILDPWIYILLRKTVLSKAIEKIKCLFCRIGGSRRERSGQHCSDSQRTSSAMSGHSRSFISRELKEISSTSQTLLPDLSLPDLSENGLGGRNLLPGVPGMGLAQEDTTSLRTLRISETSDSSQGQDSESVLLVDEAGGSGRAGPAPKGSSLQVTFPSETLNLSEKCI

| pKi | SMILES |
| --- | --- |
| ≥ 6.00 | CC(C)Oc1c2c(c(OC(C)C)c3ccccc13)C(=O)N(c1ccc(CC(=O)O)cc1)C2 [Example 4, [4-(4,9-Di-isopropoxy-1-oxo-1,3-dihydro-2H-benzo[f]isoindol-2-yl)phenyl]acetic acid] |
| ≥ 6.00 | CCCOc1c2c(c(OCCC)c3ccccc13)C(=O)N(c1ccc(CC(=O)O)cc1)C2 [Example 5, [4-(4,9-Dipropoxy-1-oxo-1,3-dihydro-2H-benzo[f]isoindol-2-yl)phenyl]acetic acid] |
| ≥ 6.00 | CCOc1c2c(c(OCC)c3ccccc13)C(=O)N(c1ccc(CC(=O)O)cc1)C2=O [Example 12, [4-(4,9-Diethoxy-1,3-dioxo-1,3-dihydro-2H-benzo[f]isoindol-2-yl)phenyl]acetic acid] |

same assay, conditions: SPA, membranes of CHO cells expressing human EP4 receptor, 1.25 nM [3H]-prostaglandin E2 as radioligand; pKi from IC50 by Cheng-Prusoff correction; read-out: pKi at EP4 receptors (converted)

| Ki [nM] | SMILES |
| --- | --- |
| ≤ 1000 | COc1c2c(c(OC)c3ccccc13)C(=O)N(c1ccc(CC(=O)O)cc1)C2 [Example 1, [4-(4,9-Dimethoxy-1-oxo-1,3-dihydro-2H-benzo[f]isoindol-2-yl)phenyl]acetic acid] |
| ≤ 1000 | CC(C)Oc1c2c(c(OC(C)C)c3ccccc13)C(=O)N(c1ccc(CC(=O)O)cc1)C2=O [Example 13, [4-(4,9-Di-isopropoxy-1,3-dioxo-1,3-dihydro-2H-benzo[f]isoindol-2-yl)phenyl]acetic acid] |
| ≤ 1000 | CCCOc1c2c(c(OCCC)c3ccccc13)C(=O)N(c1ccc(CC(=O)O)cc1)C2=O [Example 14, [4-(4,9-Dipropoxy-1,3-dioxo-1,3-dihydro-2H-benzo[f]isoindol-2-yl)phenyl]acetic acid] |
| ≤ 1000 | CCOc1c2c(c(OC(C)C)c3ccccc13)C(=O)N(c1ccc(CC(=O)O)cc1)C2=O [Example 17, [4-(4-Ethoxy-9-isopropoxy-1,3-dioxo-1,3-dihydro-2H-benzo[f]isoindol-2-yl)phenyl]acetic acid] |
